Assay results: PubChem BioAssay (NCI)
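Interpolation was linear, between the two tested concentrations surrounding the appropriate level; five concentrations were tested over 48 hours in 96-well plates. TGI marks complete inhibition of growth.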

Tests used:
Assay in all cases: NCI anticancer screen, dose series, 48 h
[1] = tested on: CAKI-1 renal
[2] = tested on: ACHN renal
[3] = tested on: HS 578T breast
[4] = tested on: NCI-H460 lung
[5] = tested on: HT29 colon
[6] = tested on: SN12C renal
[7] = tested on: LOX IMVI melanoma
[8] = tested on: MALME-3M melanoma
[9] = tested on: SK-MEL-2 melanoma
[10] = tested on: CCRF-CEM leukemia
[11] = tested on: COLO 205 colon
[12] = tested on: OVCAR-8 ovarian
[13] = tested on: NCI-H226 lung
[14] = tested on: HOP-92 NSCLC
[15] = tested on: SK-OV-3 ovarian
[16] = tested on: SF-539 CNS
[17] = tested on: A498 renal

SMILES	TGI [1] [µM]	TGI [2] [µM]	TGI [3] [µM]	TGI [4] [µM]	TGI [5] [µM]	TGI [6] [µM]	TGI [7] [µM]	TGI [8] [µM]	TGI [9] [µM]	TGI [10] [µM]	TGI [11] [µM]	TGI [12] [µM]	TGI [13] [µM]	TGI [14] [µM]	TGI [15] [µM]	TGI [16] [µM]	TGI [17] [µM]
N#Cc1c2c(c(N)oc1=O)C(c1ccccc1)CC(=O)N2 (stereo unspecified)	> 100	> 100	> 100	> 100	> 100	> 100	> 100	> 100	> 100	> 100	> 100	> 100	> 100	> 100	> 100	> 100	–
Nc1ccc2c(c1)nc1n2C(c2c(F)cccc2F)SC1 (stereo unspecified)	> 100	> 100	> 100	> 100	> 100	> 100	> 100	> 100	> 100	> 100	> 100	> 100	–	–	> 100	> 100	> 100
CC1(c2nc3ccccc3[nH]2)CCC(C(=O)O)C(C)(C)O1 (stereo unspecified)	> 100	> 100	> 100	–	> 100	> 100	> 100	> 100	> 100	> 100	> 100	> 100	> 100	> 100	> 100	> 100	–
CCOC(=O)c1nc2cc(C(F)(F)F)ccc2nc1Nc1ccc(OC)cc1	> 100	> 100	> 100	–	> 100	> 100	> 100	–	> 100	–	> 100	> 100	> 100	> 100	–	> 100	> 100
COc1ccc2c(c1)c1c(n2CCN(C)C)-c2ccccc2CC1	27.6	30	34.2	30.8	20.3	28.1	33.5	35.5	30.3	38.6	27.2	31.1	24.6	31	34.4	27	–
O=C1Cc2c([nH]c3ccc(Br)cc23)-c2cc(O)c(O)cc2N1	> 100	> 100	> 100	> 100	–	> 100	> 100	–	> 100	–	> 100	> 100	> 100	> 100	> 100	–	> 100
CC(=O)Oc1ccc(/C=C/C(=O)OCCCOC(=O)/C=C/c2ccc(OC(C)=O)c(OC(C)=O)c2)cc1OC(C)=O	> 100	> 100	> 100	> 100	> 100	> 100	> 100	> 100	> 100	–	> 100	> 100	–	> 100	> 100	> 100	> 100
Oc1ccc2cc(Br)ccc2c1-c1c(O)ccc2ccc(Br)cc12	34	28	24.2	15.3	10.1	24.3	–	26.6	31.4	28.3	26.5	30.4	30.4	–	24.6	34.8	32.1
Cc1nc2ccc(C(F)(F)F)cc2nc1NCc1ccc(Cl)c(Cl)c1	33.8	28	45.5	> 100	28.2	35.3	29.6	32	–	36.6	30.6	33.2	37.9	–	–	33.7	–
COC(=O)c1ccc(S)c(S(=O)(=O)Nc2n[nH]c(N)n2)c1	> 100	> 100	> 100	> 100	> 100	> 100	> 100	> 100	> 100	> 100	> 100	> 100	–	> 100	–	> 100	> 100
CCCCc1ccc(-n2sc3ncc(C)cc3c2=O)cc1	–	> 100	> 100	> 100	–	47.2	72.3	90.1	> 100	50.5	46.3	51.1	> 100	87.5	> 100	–	–
CCC1OC2C(CC=C(C)C)=C3OC(C)(O)C(C)(CC)C(OC(C)=O)C3=C3OC(=O)C=C1C32 (stereo unspecified)	62.1	> 100	> 100	84.6	53.1	41.2	48.8	49.3	41.8	> 100	70.9	> 100	–	> 100	> 100	40.9	> 100
O=C(c1cccs1)N(C(=S)OCCOc1ccccc1)c1ccccc1	83.8	72.1	> 100	> 100	96.5	55.5	33.3	69.9	55.6	59.4	42.4	87.8	–	45.9	73.5	58	50.5
O=[N+]([O-])c1ccc(-c2nc3ccc(Cl)cc3[nH]2)cc1	> 100	> 100	> 100	> 100	> 100	> 100	> 100	> 100	–	–	> 100	> 100	> 100	> 100	> 100	> 100	–
CCOC(=O)NNC(=O)NCc1cccc(CNC(=O)NNC(=O)OCC)c1	> 100	–	> 100	> 100	> 100	> 100	> 100	> 100	> 100	> 100	> 100	> 100	> 100	–	> 100	> 100	> 100
CC1(C)CC[C@]2(C)CC[C@]3(C)C(=CC[C@@H]4[C@@]5(C)CCC(=O)C(C)(C)[C@@H]5[C@H](O)C[C@]43C)[C@@H]2C1	33.7	30.6	36.8	33.9	31.8	29.5	32.8	31.6	30	> 100	32	34.3	–	31.7	31.7	32.1	31
O=c1[nH]c(=S)nc2nc3c4ccc[nH]c4c4ccccc4c3nc12	> 100	> 100	> 100	> 100	> 100	> 100	–	> 100	–	> 100	> 100	> 100	–	> 100	> 100	> 100	> 100
CCOC(=O)CNC(=O)C(CSC(=O)N(O)c1ccc(Cl)cc1)NC(=O)CCC(N)C(=O)OCC (stereo unspecified)	> 50	> 50	> 50	> 50	> 50	> 50	> 50	–	> 50	> 50	> 50	> 50	> 50	> 50	> 50	> 50	–
CCOC(=O)C1(F)S(=O)(=O)OCCOS1(=O)=O	> 100	> 100	> 100	–	> 100	> 100	> 100	> 100	> 100	–	> 100	> 100	> 100	–	> 100	> 100	–
COc1ccc(/C=N/n2c(C)n[nH]c2=O)c(OC)c1	> 100	> 100	9.01	> 100	> 100	> 100	–	> 100	> 100	> 100	> 100	> 100	> 100	–	> 100	> 100	> 100
CC1CN=C(N(Cc2ccccc2)C(=O)Nc2ccc(Cl)c(Cl)c2)S1 (stereo unspecified)	> 100	75	> 100	> 100	> 100	69.3	> 100	> 100	68.3	> 10	> 100	> 100	–	54.5	> 100	> 100	> 100
COc1c(=O)cc2cc[nH]c3ccn(C)c1c23	> 100	> 100	> 100	> 100	–	> 100	> 100	–	> 100	–	> 100	> 100	> 100	–	> 100	–	> 100
CCCCCCCC1(N=[N+]=[N-])C(=O)Nc2ccccc2C1=O (stereo unspecified)	27.8	28.6	42	53.6	56.8	34.4	26.9	33.4	32.7	95.4	36.3	–	–	27.2	30.4	29.6	14
COc1ccc(/C(Br)=C2\OC(=O)c3ccccc32)cc1	> 10	> 10	> 10	> 10	> 10	> 10	> 10	–	> 10	> 10	> 10	> 10	> 10	> 10	> 10	> 10	–
